# Values of other authors, collected in patent US20080160064A1, “DEVICES AND METHODS FOR […]” (priority 2006, published 2008).
# Target: hemoglobin (Homo sapiens, UniProt P68871+P69905)
# Conditions: higher affinity than oxygen
# Sequence of hemoglobin (P69905 2-142 limits assumed): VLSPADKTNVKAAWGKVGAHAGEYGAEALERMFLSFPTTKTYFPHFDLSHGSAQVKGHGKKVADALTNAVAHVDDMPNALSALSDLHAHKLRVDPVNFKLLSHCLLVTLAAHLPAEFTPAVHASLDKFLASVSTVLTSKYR
# Sequence of hemoglobin (P68871 2-147 limits assumed): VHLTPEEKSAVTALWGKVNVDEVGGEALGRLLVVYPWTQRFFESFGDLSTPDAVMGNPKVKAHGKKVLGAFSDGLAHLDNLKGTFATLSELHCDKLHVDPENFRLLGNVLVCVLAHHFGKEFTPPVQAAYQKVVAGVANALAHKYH
smiles,measurement,value
"[C-]#[O+] [CO, Carbon monoxide]",affinity for hemoglobin relative to oxygen,~200 ×
